Our source for the IC50 values is patent US20090047246A1, “NOVEL INHIBITORS OF HEPATITIS C VIRUS REPLICATION” (InterMune, Inc., priority 2007, published 2009).

As usually defined, the IC50 is the concentration that inhibits the measured activity by half.

The target in the first assay is T1, HCV NS3 helicase (Hepatitis C virus genotype 1b, UniProt P26663).
T1 construct: full-length NS3 (1-631), purified at Array BioPharma
T1 sequence (P26663 1027-1657): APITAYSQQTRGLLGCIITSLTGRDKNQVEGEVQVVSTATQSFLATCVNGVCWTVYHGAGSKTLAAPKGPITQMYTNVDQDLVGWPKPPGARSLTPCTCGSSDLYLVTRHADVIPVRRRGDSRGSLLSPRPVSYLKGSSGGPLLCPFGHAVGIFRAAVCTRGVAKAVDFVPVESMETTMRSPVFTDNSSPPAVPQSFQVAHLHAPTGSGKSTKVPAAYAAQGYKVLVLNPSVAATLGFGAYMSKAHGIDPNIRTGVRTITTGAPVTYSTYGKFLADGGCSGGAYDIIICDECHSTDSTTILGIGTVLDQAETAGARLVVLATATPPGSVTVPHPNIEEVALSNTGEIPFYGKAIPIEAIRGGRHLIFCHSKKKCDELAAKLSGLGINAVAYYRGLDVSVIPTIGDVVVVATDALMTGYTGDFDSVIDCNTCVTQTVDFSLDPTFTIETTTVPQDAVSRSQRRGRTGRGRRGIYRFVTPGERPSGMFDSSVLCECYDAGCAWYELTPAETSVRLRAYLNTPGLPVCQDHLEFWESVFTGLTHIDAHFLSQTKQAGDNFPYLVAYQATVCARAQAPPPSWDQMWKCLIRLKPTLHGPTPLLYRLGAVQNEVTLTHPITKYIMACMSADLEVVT
The assay can be described thus: HCV Helicase Prompt FRET Assay (Example A). It is filed as biochemical. Particulars: HCV NS3 helicase; tables do not say whether Example A or Example B assay; read-out: IC50 Activity. The procedure: Test compounds were diluted to 2.5 mM by adding 6 uL of a 10 mM solution of the compound to 18 uL of DMSO in a 384-well Costar polypropylene plate. Serial dilutions (2.5×) were performed in the plate using DMSO as the diluent. 1 ul of solution was transferred from each well to a new 384-well Costar polypropylene plate.
A 2× mixture was prepared containing 100 nM helicase substrate, 500 nM helicase capture strand (CS), and 600 μM ATP by diluting stock solutions with assay buffer consisting of 25 mM MOPS, pH 7.0, and 1.5 mM MgCl2, 0.005% (v/v) Triton X-100. Stock helicase substrate was prepared by annealing a FAM-labeled oligonucleotide to a BHQ-1 labeled oligonucleotide, which were both custom synthesized and HPLC-purified at Biosearch Technologies. The FAM-labeled and BHQ-labeled oligonucleotide had the following sequences:
The helicase capture strand was custom synthesized and purified at Integrated DNA Technologies. The helicase capture strand had the following sequence:
The ATP solution was prepared in MilliQ water, pH adjusted to approximately 7 with NaOH. ATP powder was obtained from Sigma (A-7699). The concentration was determined via A260 (ext. coeff=15,400 M^−1cm^−1).
11.5 μL of assay buffer was added to all wells of the plate containing luL of test compound. 5 μL of the Compound/assay buffer mixture was added to a black polystyrene 384-well Proxiplate. A 4× Enzyme solution was prepared by diluting enzyme stock containing full-length NS3 (1-631), purified at Array BioPharma, with assay buffer. 5 μL of the 4× Enzyme solution was added to the Proxiplate and incubated for 5 minutes (for control wells lacking enzyme, assay buffer was used instead). 10 μL of 2× substrate/CS/ATP mixture was then added to all wells of Proxiplate. The final assay conditions included 50 nM Substrate, 250 nM Capture Strand, 300 μM ATP, 5 or 6 nM Enzyme, and 2% (v/v) DMSO. The reaction proceeded for 70 cycles (˜30 min.) on an Envision at room temperature. The plate was read using the Envision (top mirror=FITC; Excitation filter=FITC 485; Emission filter=FITC 535). The fluorescence intensity was recorded for a total of 30 minutes. The initial rates of the reactions was calculated and used to calculate IC50 values. The IC50 curve fitting was performed using either a 4-parameter or 5-parameter logistic equation.
For the compound `O=C(O)Cc1c(C(=O)c2ccc(-c3ccccc3Br)cc2)[nH]c2ccccc12` [Example 270], the IC50 lay in the range of 10 to 50 µM.

As to `O=C(Cc1cn(Cc2cccc(CCc3ccccc3)c2)c2ccc(Br)cc12)N1CCCC1` [Example 184], the IC50 was 10 to 50 µM.

Turning to `O=C(Cc1cn(Cc2cccc(OCc3ccccc3)c2)c2ccc(OCc3ccccc3)cc12)NS(=O)(=O)c1ccccc1` [Example 195], the IC50 is less than 10 µM.

In the case of `O=C(O)Cc1cn(Cc2ccc(Oc3ccccc3C(F)(F)F)cc2)c2ccccc12` [Example 502], the IC50 was less than 10 µM.

Regarding `CN(c1cccc(Cn2cc(CC(=O)O)c3ccccc32)c1)c1cc(C(F)(F)F)cc(C(F)(F)F)c1` [Example 547], the IC50 was less than 10 µM.

Turning to `CC(C)c1ccc(Cn2cc(C(N)C(=O)O)c3ccccc32)cc1` (stereo not shown) [Example 418], the IC50 is greater than 50 µM.

In the case of `CN(c1cccc(Cn2cc(CC(=O)O)c3ccccc32)c1)c1ccccc1F` [Example 520], the IC50 is less than 10 µM.

For `O=C(O)C(Cc1ccccc1)c1cn(Cc2csc3ccc(Cl)cc23)c2cc(OCc3ccccc3)ccc12` (stereo not shown) [Example 351], the IC50 was less than 10 µM.

As for `CC(C)c1ccc(Cn2c(C(=O)NCc3nc4ccccc4[nH]3)c(CC(=O)O)c3ccccc32)cc1` [Example 449], the IC50 was less than 10 µM.

Consider `CC(C)N(c1cccc(Cn2cc(CC(=O)O)c3ccccc32)c1)c1ccccc1Cl` [Example 554], for which the IC50 is less than 10 µM.

For `COC(=O)/C=C/c1cnc2c(c1)c(/C=C/C(=O)OC)cn2-c1ccc([N+](=O)[O-])cc1C` [Example 322], the IC50 is 10 to 50 µM.

Turning to `O=C(O)Cc1c(C(=O)c2ccc(-c3ccccc3)cc2)sc2ccccc12` [Example 224], the IC50 was less than 10 µM.

With `O=C(O)Cc1c(C(=O)c2ccccc2)n(Cc2csc3ccc(Cl)cc23)c2ccccc12` [Example 217], the IC50 is less than 10 µM.

`Cc1cc([N+](=O)[O-])ccc1-n1cc(C(O)(C(=O)N2CCCC2)C(F)(F)F)c2cc(Br)ccc21` (stereo not shown) [Example 402]: the IC50 was greater than 50 µM.

On to `CSc1cccc(-c2cccc(Cc3[nH]c4ccccc4c3CC(=O)O)c2)c1` [Example 297], for which the IC50 was less than 10 µM.

Turning to `Cc1ccccc1-c1ccc(-n2cc(CC(=O)O)c3ccccc32)cc1` [Example 154], the IC50 is less than 10 µM.

For the compound `Cc1ccc2c(c1)c(CC(=O)O)cn2-c1ccc([N+](=O)[O-])cc1C` [Example 380], the IC50 was greater than 50 µM.

For `CC(C)c1ccc(Cn2c(C(=O)NCc3ccc(OC(F)(F)F)cc3)c(CC(=O)O)c3ccccc32)cc1` [Example 454], the IC50 was less than 10 µM.

Regarding `COc1ccccc1-c1ccc(Cc2[nH]c3ccccc3c2CC(=O)O)cc1` [Example 284], the IC50 was 10 to 50 µM.

With `COC(OC)c1cc([N+](=O)[O-])ccc1-n1cc(CC(=O)O)c2cc(Br)ccc21` [Example 338], the IC50 was greater than 50 µM.

`O=C(O)Cc1cn(Cc2ccc(Oc3c(F)cccc3F)cc2)c2ccccc12` [Example 587]: the IC50 is less than 10 µM.

`O=C(O)Cc1cn(Cc2csc3ccc(Cl)cc23)c2cc(Oc3ccc([N+](=O)[O-])cc3)ccc12` [Example 357]: the IC50 is less than 10 µM.

As to `COC(=O)C(c1ccc([N+](=O)[O-])cc1C)c1cn(-c2ccc([N+](=O)[O-])cc2C)c2ccc(Br)cc12` (stereo not shown) [Example 396], the IC50 is less than 10 µM.

Turning to `COc1ccc2c(CC(=O)O)cn(-c3ccc([N+](=O)[O-])cc3C)c2c1` [Example 341], the IC50 was greater than 50 µM.

`O=C(O)Cc1cn(-c2ccc([N+](=O)[O-])cc2C2OCCO2)c2ccc(Br)cc12` [Example 339]: the IC50 was 10 to 50 µM.

On to `Cc1cc(NC(=O)c2cccs2)ccc1-n1cc(CC(=O)O)c2ccccc21` [Example 158], for which the IC50 lay within 10 to 50 µM.

With `O=C(O)Cc1cn(Cc2csc3ccc(F)cc23)c2ccccc12` [Example 133], the IC50 is 10 to 50 µM.

`O=C(O)Cc1c(Cc2csc3ccc(Cl)cc23)n(Cc2csc3ccc(Cl)cc23)c2cc(OCc3ccccc3)ccc12` [Example 348]: the IC50 was less than 10 µM.

Take `CCn1c(Cc2csc3ccc(Cl)cc23)c(CC(=O)O)c2ccc(OCc3ccccc3)cc21` [Example 370]: the IC50 is less than 10 µM.

On to `CCOC(=O)Cc1cn(Cc2ccc(Oc3cc(Cl)cc(Cl)c3)cc2)c2ccccc12` [Example 515], for which the 50% inhibitory concentration (IC50) is less than 10 µM.

As to `O=C(Cc1cn(Cc2csc3ccc(Cl)cc23)c2ccccc12)NS(=O)(=O)C1CC1` [Example 198], the IC50 was 10 to 50 µM.

Take `O=C(O)Cc1c(C(=O)c2ccc(Br)cc2)n(Cc2ccccc2)c2ccccc12` [Example 248]: the IC50 is 10 to 50 µM.

`O=C(O)Cc1cn(Cc2ccccc2C(F)(F)F)c2ccc(Br)cc12` [Example 103]: the IC50 was in the range of 10 to 50 µM.

Take `O=C(OCc1ccccc1)C(Cc1ccccc1)c1cn(Cc2csc3ccc(Cl)cc23)c2cc(OCc3ccccc3)ccc12` (stereo not shown) [Example 350]: the IC50 was greater than 50 µM.

In the case of `CCC(C)N(Cc1ccccc1)c1ccc(-n2cc(CC(=O)O)c3ccccc32)cc1` (stereo not shown) [Example 171], the IC50 is less than 10 µM.

Consider `NC(=O)Cc1c(-c2ccccc2)n(Cc2csc3ccc(Cl)cc23)c2ccccc12` [Example 200], for which the IC50 was in the range of 10 to 50 µM.

Consider `CC(C)NC(=O)c1c(CC(=O)O)c2cc(Br)ccc2n1Cc1ccc(C(C)C)cc1` [Example 433], for which the IC50 lay within 10 to 50 µM.

For the compound `CC1CCN(C(=O)Cc2cn(Cc3cccc(OCc4ccccc4)c3)c3ccc(OCc4ccccc4)cc23)C1` (stereo not shown) [Example 191], the IC50 is 10 to 50 µM.

For the compound `O=C(O)Cc1cn(Cc2cccc(Cl)c2)c2ccc(Br)cc12` [Example 108], the IC50 was 10 to 50 µM.

Still in this assay, the particulars now being: IC50 Activity, HCV NS3 helicase; tables do not say whether Example A or Example B assay.
Turning to `CCOC(=O)C(O)(c1cn(-c2ccc([N+](=O)[O-])cc2C)c2ccc(Br)cc12)C(F)(F)F` (stereo not shown) [Example 389], the IC50 is greater than 50 µM.

The assay is the same for the next values; noted with them: Table 21, compounds made using Scheme 28; read-out: IC50 Activity.
On to `COc1cccc(N(C)c2ccc(Cn3cc(CC(=O)O)c4ccccc43)cc2)c1` [Example 563], for which the IC50 was less than 10 µM.

Take `COc1ccc(N(C)c2ccc(Cn3cc(CC(=O)O)c4ccccc43)cc2)c(OC)c1` [Example 577]: the IC50 fell in the range of 10 to 50 µM.

Staying with this assay, now noted: Table 26, compounds made using Scheme 33; read-out: IC50 Activity.
On to `Nc1ccc(CO)c(-c2ccc3c(CC(=O)O)cn(Cc4csc5ccc(Cl)cc45)c3c2)n1` [Example 615], for which the concentration for half-maximal inhibition (IC50) fell in the range of 10 to 50 µM.

The assay is the same for the next values; noted with them: Table 31, compounds made using Schemes 38-45; read-out: IC50 Activity.
Turning to `CC(C)Nc1cc(NC(C)C)cc(-c2ccc3c(CC(=O)O)cn(Cc4csc5ccc(Cl)cc45)c3c2)c1` [Example 649], the IC50 was less than 10 µM.

Staying with this assay, now noted: Table 32, compounds made using Schemes 46-49; read-out: IC50 Activity.
Regarding `CC(C)(C)OC(=O)Nc1ncc(-c2ccc3c(CC(=O)O)cn(Cc4csc5ccc(Cl)cc45)c3c2)s1` [Example 657], the IC50 is less than 10 µM.

As to `Nc1ncc(-c2ccc3c(CC(=O)O)cn(Cc4csc5ccc(Cl)cc45)c3c2)s1` [Example 656], the IC50 fell in the range of 10 to 50 µM.

Staying with this assay, now noted: Table 33, compounds made using Scheme 50; read-out: IC50 Activity.
As for `O=C(O)Cc1cn(Cc2csc3ccc(Cl)cc23)c2cc(-c3ccc4nc[nH]c4c3)ccc12` [Example 668], the IC50 fell in the range of 10 to 50 µM.

The assay is the same for the next values; noted with them: Table 34, compounds made using Schemes 51-52; read-out: IC50 Activity.
As for `CC(C)c1ccc(Cn2cc(C(Cc3ccccc3)C(=O)NO)c3cc(Br)ccc32)cc1` (stereo not shown) [Example 684], the IC50 was less than 10 µM.

Staying with this assay, now noted: Table 36, compounds made using Scheme 54; read-out: IC50 Activity.
For `Nc1cc(N)cc(-c2ccc3c(CC(=O)O)cn(Cc4csc5cccc(Cl)c45)c3c2)c1` [Example 727], the IC50 is less than 10 µM.

`O=C(O)Cc1cn(Cc2csc3cc(Cl)cc(Cl)c23)c2cc(Br)ccc12` [Example 786]: the IC50 is greater than 50 µM.

Still in this assay, the particulars now being: Table 38, compounds made using Scheme 56, Scheme 57 and Scheme 61; read-out: IC50 Activity.
On to `CCNc1cc(Cl)cc2c(Cn3cc(CC(=O)O)c4ccc(Br)cc43)csc12` [Example 772], for which the IC50 is greater than 50 µM.

As to `CN(C=O)c1cc(Cl)cc2c(Cn3cc(CC(=O)O)c4ccc(-c5cc(N)cc(N)c5)cc43)csc12` [Example 729], the IC50 was 10 to 50 µM.
